Here are results for 25 compounds from US7935674B2, “Indole derivatives” (Mitsubishi Tanabe Pharma Corporation, priority 2005, dated 2011).

pIC50: −log10 of the molar value.

The target in one experiment is T1, human SGLT2 (Homo sapiens, UniProt P31639).
T1 construct: expressed in transfected cells; host or cells: CHOK1 (Chinese hamster ovary) cells, kept under Geneticin selection
T1 sequence (P31639 1-672): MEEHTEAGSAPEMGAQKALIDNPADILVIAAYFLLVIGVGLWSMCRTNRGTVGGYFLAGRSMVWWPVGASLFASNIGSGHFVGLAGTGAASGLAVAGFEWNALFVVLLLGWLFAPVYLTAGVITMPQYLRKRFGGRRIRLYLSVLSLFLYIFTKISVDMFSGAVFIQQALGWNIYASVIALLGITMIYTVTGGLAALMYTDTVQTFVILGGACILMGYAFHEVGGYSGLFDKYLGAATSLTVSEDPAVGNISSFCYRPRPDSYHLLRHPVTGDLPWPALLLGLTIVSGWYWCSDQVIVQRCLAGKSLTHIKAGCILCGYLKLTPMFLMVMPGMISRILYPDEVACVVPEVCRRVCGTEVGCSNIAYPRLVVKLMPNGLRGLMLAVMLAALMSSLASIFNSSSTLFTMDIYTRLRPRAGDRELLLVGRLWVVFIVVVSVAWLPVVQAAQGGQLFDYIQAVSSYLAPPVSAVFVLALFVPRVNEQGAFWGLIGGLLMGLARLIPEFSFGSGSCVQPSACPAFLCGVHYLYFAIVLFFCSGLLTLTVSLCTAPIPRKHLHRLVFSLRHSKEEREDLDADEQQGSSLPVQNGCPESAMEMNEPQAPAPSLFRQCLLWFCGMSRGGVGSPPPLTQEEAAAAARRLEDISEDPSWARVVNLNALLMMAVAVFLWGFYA
Kind of experiment: Assay for SGLT2 inhibition (14C-AMG uptake in CHOK1 cells expressing human SGLT2). It is filed as cell-based. The following applies: CHOK1 cells expressing human SGLT2; 14C-AMG uptake, 0.5 mM, 2 hours at 37° C.; read-out: IC50. The method, then:
1. Assay for SGLT2 Inhibition
Compounds described in the above examples were used for the SGLT2 inhibition assay.
CHOK1 cells expressing human SGLT2 were seeded in 24-well plates at a density of 400,000 cells/well in F-12 nutrient mixture (Ham's F-12) containing 10% fetal bovine serum, 400 μg/ml Geneticin, 50 units/ml sodium penicillin G (Gibco-BRL) and 50 μg/ml streptomycin sulfate. After 2 days of culture at 37° C. in a humidified atmosphere containing 5% CO2, cells were washed once with the assay buffer (137 mM NaCl, 5 mM KCl, 1 mM CaCl2, 1 mM MgCl2, 50 mM Hepes, and 20 mM Tris, pH 7.4) and incubated with 250 μl of the buffer containing test compounds for 10 min at 37° C. Test compounds were dissolved in DMSO. The final concentration of DMSO was 0.5%. The transport reaction was initiated by addition of 50 μl [^14C]-methyl-α-D-glucopyranoside (^14C-AMG) solution (final concentration, 0.5 mM). After incubation for 2 hours at 37° C., the uptake was stopped by aspiration of the incubation mixture, the cells were washed three times with ice-cold PBS. Then, cells were solubilized with 0.3 N NaOH and aliquots were taken for determination of radioactivity by a liquid scintillation counter. Nonspecific AMG uptake was defined as that which occurred in the presence of 100 μM of phlorizin, a specific inhibitor of sodium-dependent glucose cotransporter. Specific uptake was normalized for the protein concentrations measured by the method of Bradford. The 50% inhibitory concentration (IC50) values were calculated from dose-response curves by least square method.

The test system of a further experiment is Sprague-Dawley (SD) rats. Kind of experiment: Urinary glucose excretion test in rats. The following applies: male SD rats; 30 mg/kg by oral gavage; urine collected for 24 hours; daily amount of glucose excreted in urine per individual. The experiment is classed as in vivo, rat. The method, then: 2. Urinary Glucose Excretion Test in Rats Test Compounds:
Compounds described in the above examples were used for the Urinary glucose excretion test in rats.
6-week-old male Sprague-Dawley (SD) rats were housed in individual metabolic cages with free access to food and water from 2 days prior to the experiment. On the morning of the experiment, rats were administered vehicle (0.2% carboxymethyl cellulose solution containing 0.2% Tween80) or test compounds (30 mg/kg) by oral gavage at a volume of 10 ml/kg. Then, urine of the rat was collected for 24 hours, and the urine volume was measured. Subsequently, the glucose concentration in urine was quantified using the enzymatic assay kit and the daily amount of glucose excreted in urine per individual was calculated.

As for `CCc1ccc(Cc2cn([C@@H]3O[C@H](CO)[C@@H](O)[C@H](O)[C@H]3O)c3cccc(Cl)c23)cc1` [Example 1, 4-Chloro-3-(4-ethylphenylmethyl)-1-(β-D-glucopyranosyl)-indole], the pIC50 at human SGLT2 is 8.54.

As to `CCc1ccc(Cc2cn([C@@H]3O[C@H](CO)[C@@H](O)[C@H](O)[C@H]3O)c3cccc(F)c23)cc1` [Example 2, 3-(4-Ethylphenylmethyl)-4-fluoro-1-(β-D-glucopyranosyl)-indole], the pIC50 at human SGLT2 is 8.28. For the same compound, the Urinary glucose result in the experiment on Sprague-Dawley (SD) rats is “A (A≧2400 mg)”. Turning to `CCOc1ccc(Cc2cn([C@@H]3O[C@H](CO)[C@@H](O)[C@H](O)[C@H]3O)c3cccc(Cl)c23)cc1` [Example 3, 4-Chloro-3-(4-ethoxyphenylmethyl)-1-(β-D-glucopyranosyl)-indole], on human SGLT2, the pIC50 was 8.46. The Urinary glucose entry in the experiment on Sprague-Dawley (SD) rats was “B (2400 mg>B≧2000 mg)”. `CSc1ccc(Cc2cn([C@@H]3O[C@H](CO)[C@@H](O)[C@H](O)[C@H]3O)c3cccc(Cl)c23)cc1` [Example 4, 4-Chloro-3-(4-(methylthio)phenylmethyl)-1-(β-D-gluco-pyranosyl)indole]: at human SGLT2, the pIC50 was 8.77.

For `COc1ccc(Cc2cn([C@@H]3O[C@H](CO)[C@@H](O)[C@H](O)[C@H]3O)c3cccc(Cl)c23)cc1` [Example 5, 4-Chloro-3-(4-methoxyphenylmethyl)-1-(β-D-glucopyranosyl)-indole], the pIC50 at human SGLT2 is 8.74. As to `OC[C@H]1O[C@@H](n2cc(Cc3ccc(Cl)cc3)c3c(Cl)cccc32)[C@H](O)[C@@H](O)[C@@H]1O` [Example 6, 4-Chloro-3-(4-chlorophenylmethyl)-1-(β-D-glucopyranosyl)-indole], the pIC50 on human SGLT2 was 8.01. The Urinary glucose result with Sprague-Dawley (SD) rats is reported as “A (A≧2400 mg)”. For `OC[C@H]1O[C@@H](n2cc(Cc3ccc(Br)s3)c3c(Cl)cccc32)[C@H](O)[C@@H](O)[C@@H]1O` [Example 7, 3-(5-Bromo-2-thienylmethyl)-4-chloro-1-(β-D-glucopyranosyl)-indole] the same measures were 8.30 and “B (2400 mg>B≧2000 mg)”. Take `CCOc1ccc(Cc2cn([C@@H]3O[C@H](CO)[C@@H](O)[C@H](O)[C@H]3O)c3cccc(F)c23)cc1` [Example 8, 3-(4-Ethoxyphenylmethyl)-4-fluoro-1-(β-D-glucopyranosyl)-indole]: the pIC50 on human SGLT2 is 8.32. The Urinary glucose result in the experiment on Sprague-Dawley (SD) rats was “A (A≧2400 mg)”. Turning to `COc1ccc(Cc2cn([C@@H]3O[C@H](CO)[C@@H](O)[C@H](O)[C@H]3O)c3cccc(F)c23)cc1` [Example 9, 4-Fluoro-3-(4-methoxyphenylmethyl)-1-(β-D-glucopyranosyl)-indole], at human SGLT2, the pIC50 was 8.48. Take `CSc1ccc(Cc2cn([C@@H]3O[C@H](CO)[C@@H](O)[C@H](O)[C@H]3O)c3cccc(F)c23)cc1` [Example 10, 4-Fluoro-3-(4-(methylthio)phenylmethyl)-1-(β-D-gluco-pyranosyl)indole]: the pIC50 on human SGLT2 was 8.62. Same read-out and setting: under `Cc1ccc(Cc2cn([C@@H]3O[C@H](CO)[C@@H](O)[C@H](O)[C@H]3O)c3cccc(Cl)c23)cc1` [Example 11, 4-Chloro-3-(4-methylphenylmethyl)-1-(β-D-glucopyranosyl)-indole] stands 8.62.

For `OC[C@H]1O[C@@H](n2cc(Cc3ccc(OCCF)cc3)c3c(F)cccc32)[C@H](O)[C@@H](O)[C@@H]1O` [Example 12, 4-Fluoro-3-(4-(2-fluoroethyloxy)phenylmethyl)-1-(β-D-gluco-pyranosyl)indole], the pIC50 on human SGLT2 was 8.39. As for `OC[C@H]1O[C@@H](n2cc(Cc3ccc(OCCCl)cc3)c3c(F)cccc32)[C@H](O)[C@@H](O)[C@@H]1O` [Example 13, 3-(4-(2-Chloroethyloxy)phenylmethyl)-4-fluoro-1-(β-D-gluco-pyranosyl)indole], the pIC50 at human SGLT2 was 8.22. In addition, the Urinary glucose result with Sprague-Dawley (SD) rats was “B (2400 mg>B≧2000 mg)”. Consider `OC[C@H]1O[C@@H](n2cc(Cc3ccc(Br)cc3)c3c(Cl)cccc32)[C@H](O)[C@@H](O)[C@@H]1O` [Example 14, 3-(4-Bromophenylmethyl)-4-chloro-1-(β-D-glucopyranosyl)-indole], for which the pIC50 on human SGLT2 is 8.09. For the same compound, in the experiment with Sprague-Dawley (SD) rats, the Urinary glucose result was “A (A≧2400 mg)”. As for `CCc1ccc(Cc2cn([C@@H]3O[C@H](CO)[C@@H](O)[C@H](O)[C@H]3O)c3cccc(Cl)c23)s1` [Example 16, 4-Chloro-3-(5-ethylthiophen-2-yl-methyl)-1-(β-D-gluco-pyranosyl)indole], the pIC50 at human SGLT2 was 8.68. As for `OC[C@H]1O[C@@H](n2cc(Cc3ccc(OCCF)cc3)c3c(Cl)cccc32)[C@H](O)[C@@H](O)[C@@H]1O` [Example 17, 4-Chloro-3-(4-(2-Fluoroethyloxy)phenylmethyl)-1-(β-D-glucopyranosyl)indole], the pIC50 on human SGLT2 was 8.60. The same measure, in the same setting: under `OC[C@H]1O[C@@H](n2cc(Cc3ccc4c(c3)CCO4)c3c(Cl)cccc32)[C@H](O)[C@@H](O)[C@@H]1O` [Example 21, 4-Chloro-3-(2,3-dihydrobenzo[b]furan-5-yl-methyl)-1-(β-D-glucopyranosyl)indole] stands 8.74; under `CCc1ccc(Cc2cn([C@@H]3O[C@H](CO)[C@@H](O)[C@H](O)[C@H]3O)c3cccc(Br)c23)cc1` [Example 22, 4-Bromo-3-(4-ethylphenylmethyl)-1-(β-D-glucopyranosyl)indole], 8.43. In the case of `CCc1ccc(Cc2cn([C@@H]3O[C@H](CO)[C@@H](O)[C@H](O)[C@H]3O)c3cccc(C)c23)cc1` [Example 23, 3-(4-Ethylphenylmethyl)-4-methyl-1-(β-D-glucopyranosyl)-indole], the pIC50 at human SGLT2 was 8.96. On to `Cc1ccc(Cc2cn([C@@H]3O[C@H](CO)[C@@H](O)[C@H](O)[C@H]3O)c3cccc(F)c23)cc1` [Example 24, 4-Fluoro-3-(4-methylphenylmethyl)-1-(β-D-glucopyranosyl)-indole], for which the negative-log IC50 (pIC50) on human SGLT2 was 8.20.

As to `Cc1cccc2c1c(Cc1ccc(-c3cccc(C#N)c3)s1)cn2[C@@H]1O[C@H](CO)[C@@H](O)[C@H](O)[C@H]1O` [Example 45, 3-(5-(3-Cyanophenyl)-thiophen-2-yl-methyl)-4-methyl-1-(β-D-glucopyranosyl)indole], the pIC50 at human SGLT2 is 8.60. For `Cc1cccc2c1c(Cc1ccc(-c3ccc(F)cc3)s1)cn2[C@@H]1O[C@H](CO)[C@@H](O)[C@H](O)[C@H]1O` [Example 48, 3-(5-(4-Fluorophenyl)thiophen-2-yl-methyl)-4-methyl-1-(β-D-glucopyranosyl)indole], the negative-log IC50 (pIC50) on human SGLT2 is 7.72. As to `Cc1cccc2c1c(Cc1ccc(-c3ccc(F)nc3)s1)cn2[C@@H]1O[C@H](CO)[C@@H](O)[C@H](O)[C@H]1O` [Example 49, 3-(5-(6-Fluoro-3-pyridyl)thiophen-2-yl-methyl)-4-methyl-1-(β-D-glucopyranosyl)indole], at human SGLT2, the negative-log IC50 (pIC50) is 8.06. Still for that read-out and setting: under `Cc1cccc2c1c(Cc1ccc(-c3ccccc3)s1)cn2[C@@H]1O[C@H](CO)[C@@H](O)[C@H](O)[C@H]1O` [Example 50, 4-Methyl-3-(5-phenylthiophen-2-yl-methyl)-1-(β-D-gluco-pyranosyl)indole] stands 7.96. In the case of `Cc1cccc2c1c(Cc1ccc(-c3cccs3)s1)cn2[C@@H]1O[C@H](CO)[C@@H](O)[C@H](O)[C@H]1O` [Example 51, 4-Methyl-3-(5-(2-thienyl)thiophen-2-yl-methyl)-1-(β-D-gluco-pyranosyl)indole], on human SGLT2, the pIC50 was 8.21.
